Data: patent publication US4308269A, “Maytansinoids, pharmaceutical compositions thereof and method of use thereof” (Takeda Chemical Industries, Ltd., priority 1979, dated 1981)
In brackets after ≈: the same amount, converted by molar mass.

Assays:
[1] = system: melanoma B-16 tumor cells; assay: Antitumor activity, B-16 melanoma transplanted intraperitoneally in mice (NCI protocol 1,300), life span prolongation; format: in vivo; conditions: intraperitoneally once daily for 9 consecutive days
Experimental: Therapeutic tests were carried out in mice according to NCI-protocol 1,300, Cancer Chemother, Reports, Part 3, 1972, Vol. 3, No. 2, in which melanoma B-16 tumor cells had been intraperitoneally transplanted, compound (I) being administered intraperitoneally once daily for 9 consecutive days.

[2] = system: Tetrahymena pyriformis W; assay: Antiprotozoal activity, growth inhibition by the serial dilution method; format: cell-based; conditions: 28° C., 44 to 48 hours, pH 7.0
Experimental: Antioprotozoal activity of compound (I) was assayed with Tetrahymena pyriformis W as the test organism and a medium composed of 20 g tryptose-peptone (Difco Co.), 1 g yeast extract, 2 g glucose, 1000 ml distilled water, 10 ml 1 M phosphate buffer (pH 7.0) as the assay medium. The micoorganism was incubated at 28° C. for 44 to 48 hours and the growth inhibitory activity of compound (I) was assayed by the serial dilution method.

SMILES: COc1cc2cc(c1Cl)N(C)C(=O)CC(OC(=O)C(N)c1ccccc1)C1(C)OC1C(C)C1CC(O)(NC(=O)O1)C(OC)/C=C/C=C(\C)C2 (single isomer, unassigned) [maytansinol 3-α-aminophenylacetate]
- Antitumor activities B-16 (T/C%) ([1]; dose 100 μg/kg): 208%
- Antitumor activities B-16 (T/C%) ([1]; dose 400 μg/kg): 208%
- Antitumor activities B-16 (T/C%) ([1]; dose 800 μg/kg): 208%
- MIC [2]: 10 to 20 µg/mL (≈ 14.3 to 28.6 µM)
